Results taken from US10004732B2 (Novartis AG, priority 2014, dated 2018).
Where a name gives a salt, the structure may show the parent alone.

Legend:
PI 3-kinase alpha [1] = biological target: T1, PI 3-kinase alpha (Homo sapiens, UniProt P42336); experiment: Kinase Glo Luminescent Kinase Assay (Kglo), assay A; format: biochemical; settings: read-out: Assay A PI3Kα IC50
Target sequence in this assay (P42336 whole entry): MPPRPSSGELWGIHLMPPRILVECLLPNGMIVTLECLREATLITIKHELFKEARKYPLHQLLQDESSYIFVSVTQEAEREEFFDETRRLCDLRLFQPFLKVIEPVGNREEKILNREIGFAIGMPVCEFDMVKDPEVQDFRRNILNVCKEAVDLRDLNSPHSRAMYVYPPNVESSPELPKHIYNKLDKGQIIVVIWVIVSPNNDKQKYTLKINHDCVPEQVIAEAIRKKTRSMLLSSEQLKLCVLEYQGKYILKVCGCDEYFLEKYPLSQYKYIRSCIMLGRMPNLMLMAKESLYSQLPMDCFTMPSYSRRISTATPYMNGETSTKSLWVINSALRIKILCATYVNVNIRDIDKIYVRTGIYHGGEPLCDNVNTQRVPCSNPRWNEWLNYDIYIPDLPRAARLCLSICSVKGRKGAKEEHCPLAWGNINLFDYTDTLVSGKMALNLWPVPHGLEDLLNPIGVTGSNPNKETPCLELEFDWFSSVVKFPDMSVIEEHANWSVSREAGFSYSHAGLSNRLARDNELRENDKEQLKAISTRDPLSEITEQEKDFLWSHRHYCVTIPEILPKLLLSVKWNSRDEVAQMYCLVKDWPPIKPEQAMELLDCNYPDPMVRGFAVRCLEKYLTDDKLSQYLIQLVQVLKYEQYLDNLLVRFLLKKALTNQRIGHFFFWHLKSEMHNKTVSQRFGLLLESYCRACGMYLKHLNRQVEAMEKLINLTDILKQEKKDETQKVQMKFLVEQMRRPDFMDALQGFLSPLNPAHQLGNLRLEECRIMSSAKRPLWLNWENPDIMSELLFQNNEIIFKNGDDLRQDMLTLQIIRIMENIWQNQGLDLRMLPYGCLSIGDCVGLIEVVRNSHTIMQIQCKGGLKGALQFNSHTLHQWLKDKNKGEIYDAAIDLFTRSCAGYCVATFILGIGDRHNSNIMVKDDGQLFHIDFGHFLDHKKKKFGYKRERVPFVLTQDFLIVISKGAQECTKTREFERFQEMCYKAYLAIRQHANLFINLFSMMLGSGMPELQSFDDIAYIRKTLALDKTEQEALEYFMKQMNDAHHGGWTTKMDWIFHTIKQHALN

PI 3-kinase beta [2] = biological target: T2, PI 3-kinase beta (Homo sapiens, UniProt P42338); experiment: Kinase Glo Luminescent Kinase Assay (Kglo), assay B; format: biochemical; settings: read-out: Assay B PI3Kβ IC50
Target sequence in this assay (P42338 whole entry): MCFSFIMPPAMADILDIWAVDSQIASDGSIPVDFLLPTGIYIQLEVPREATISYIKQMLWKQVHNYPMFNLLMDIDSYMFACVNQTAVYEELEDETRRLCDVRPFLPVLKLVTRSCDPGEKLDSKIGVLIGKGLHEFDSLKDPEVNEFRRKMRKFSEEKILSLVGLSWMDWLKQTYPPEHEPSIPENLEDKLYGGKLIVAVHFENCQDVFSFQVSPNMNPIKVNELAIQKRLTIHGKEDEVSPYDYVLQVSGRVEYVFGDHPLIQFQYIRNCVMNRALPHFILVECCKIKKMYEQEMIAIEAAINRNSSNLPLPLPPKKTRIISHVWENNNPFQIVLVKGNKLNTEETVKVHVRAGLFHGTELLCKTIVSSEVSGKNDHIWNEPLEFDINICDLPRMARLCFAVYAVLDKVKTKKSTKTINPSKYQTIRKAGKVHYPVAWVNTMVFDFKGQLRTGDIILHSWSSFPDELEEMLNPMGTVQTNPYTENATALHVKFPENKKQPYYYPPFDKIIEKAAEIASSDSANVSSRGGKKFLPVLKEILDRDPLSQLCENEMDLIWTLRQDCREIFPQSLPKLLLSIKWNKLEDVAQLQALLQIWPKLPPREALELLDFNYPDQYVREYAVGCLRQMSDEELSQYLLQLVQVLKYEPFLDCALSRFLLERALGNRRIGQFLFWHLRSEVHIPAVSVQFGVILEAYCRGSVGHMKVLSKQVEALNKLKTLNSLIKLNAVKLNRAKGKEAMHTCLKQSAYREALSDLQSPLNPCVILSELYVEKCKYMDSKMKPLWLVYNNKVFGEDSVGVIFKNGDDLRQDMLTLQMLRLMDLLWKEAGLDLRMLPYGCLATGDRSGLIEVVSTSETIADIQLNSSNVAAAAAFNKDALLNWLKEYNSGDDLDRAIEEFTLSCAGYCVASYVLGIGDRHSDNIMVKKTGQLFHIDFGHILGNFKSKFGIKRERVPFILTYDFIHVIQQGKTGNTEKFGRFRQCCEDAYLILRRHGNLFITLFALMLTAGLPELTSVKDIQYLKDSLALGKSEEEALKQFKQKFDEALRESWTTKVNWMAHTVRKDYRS
Target sequence in this assay (P27986 461-568 partner): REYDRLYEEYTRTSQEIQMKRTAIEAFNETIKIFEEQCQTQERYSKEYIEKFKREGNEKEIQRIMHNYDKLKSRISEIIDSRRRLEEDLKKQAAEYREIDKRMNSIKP

Vps34 = Vps34 (Homo sapiens, UniProt Q8NEB9); experiment: Kinase Glo Luminescent Kinase Assay (Kglo), assay C; format: biochemical; settings: read-out: Assay C VPS34 IC50
PI 4-kinase beta = PI 4-kinase beta (Homo sapiens, UniProt Q9UBF8); experiment: Kinase Glo Luminescent Kinase Assay (Kglo), assay D; format: biochemical; settings: read-out: Assay D PI4Kβ IC50
PI 4-kinase beta, sequence (Q9UBF8 whole entry): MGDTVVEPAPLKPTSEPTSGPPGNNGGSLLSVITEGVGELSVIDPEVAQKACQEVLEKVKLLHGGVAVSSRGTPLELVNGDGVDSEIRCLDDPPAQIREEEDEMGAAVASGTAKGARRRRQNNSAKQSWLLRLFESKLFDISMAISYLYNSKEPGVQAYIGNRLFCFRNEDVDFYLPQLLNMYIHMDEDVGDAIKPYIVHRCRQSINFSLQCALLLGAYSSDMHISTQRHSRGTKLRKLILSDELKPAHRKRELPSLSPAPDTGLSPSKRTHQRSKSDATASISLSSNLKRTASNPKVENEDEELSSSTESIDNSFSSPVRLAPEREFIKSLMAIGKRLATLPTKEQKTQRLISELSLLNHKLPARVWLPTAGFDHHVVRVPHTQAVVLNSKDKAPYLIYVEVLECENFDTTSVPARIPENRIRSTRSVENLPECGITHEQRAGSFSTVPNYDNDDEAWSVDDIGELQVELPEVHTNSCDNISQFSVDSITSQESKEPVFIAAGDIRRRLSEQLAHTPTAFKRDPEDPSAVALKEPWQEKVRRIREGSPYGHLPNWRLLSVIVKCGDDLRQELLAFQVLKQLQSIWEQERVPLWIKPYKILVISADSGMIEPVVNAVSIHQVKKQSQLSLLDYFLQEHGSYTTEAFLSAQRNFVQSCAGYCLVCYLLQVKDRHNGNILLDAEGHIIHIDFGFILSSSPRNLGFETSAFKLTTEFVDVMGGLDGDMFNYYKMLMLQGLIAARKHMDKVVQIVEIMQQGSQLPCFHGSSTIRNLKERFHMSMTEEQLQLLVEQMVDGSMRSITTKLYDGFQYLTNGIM

PI 3-kinase gamma [3] = biological target: T3, PI 3-kinase gamma (Homo sapiens, UniProt P48736); experiment: TR-FRET Adapta assay, assay E; format: biochemical; settings: read-out: Assay E PI3Kγ IC50
T3 sequence (P48736 whole entry): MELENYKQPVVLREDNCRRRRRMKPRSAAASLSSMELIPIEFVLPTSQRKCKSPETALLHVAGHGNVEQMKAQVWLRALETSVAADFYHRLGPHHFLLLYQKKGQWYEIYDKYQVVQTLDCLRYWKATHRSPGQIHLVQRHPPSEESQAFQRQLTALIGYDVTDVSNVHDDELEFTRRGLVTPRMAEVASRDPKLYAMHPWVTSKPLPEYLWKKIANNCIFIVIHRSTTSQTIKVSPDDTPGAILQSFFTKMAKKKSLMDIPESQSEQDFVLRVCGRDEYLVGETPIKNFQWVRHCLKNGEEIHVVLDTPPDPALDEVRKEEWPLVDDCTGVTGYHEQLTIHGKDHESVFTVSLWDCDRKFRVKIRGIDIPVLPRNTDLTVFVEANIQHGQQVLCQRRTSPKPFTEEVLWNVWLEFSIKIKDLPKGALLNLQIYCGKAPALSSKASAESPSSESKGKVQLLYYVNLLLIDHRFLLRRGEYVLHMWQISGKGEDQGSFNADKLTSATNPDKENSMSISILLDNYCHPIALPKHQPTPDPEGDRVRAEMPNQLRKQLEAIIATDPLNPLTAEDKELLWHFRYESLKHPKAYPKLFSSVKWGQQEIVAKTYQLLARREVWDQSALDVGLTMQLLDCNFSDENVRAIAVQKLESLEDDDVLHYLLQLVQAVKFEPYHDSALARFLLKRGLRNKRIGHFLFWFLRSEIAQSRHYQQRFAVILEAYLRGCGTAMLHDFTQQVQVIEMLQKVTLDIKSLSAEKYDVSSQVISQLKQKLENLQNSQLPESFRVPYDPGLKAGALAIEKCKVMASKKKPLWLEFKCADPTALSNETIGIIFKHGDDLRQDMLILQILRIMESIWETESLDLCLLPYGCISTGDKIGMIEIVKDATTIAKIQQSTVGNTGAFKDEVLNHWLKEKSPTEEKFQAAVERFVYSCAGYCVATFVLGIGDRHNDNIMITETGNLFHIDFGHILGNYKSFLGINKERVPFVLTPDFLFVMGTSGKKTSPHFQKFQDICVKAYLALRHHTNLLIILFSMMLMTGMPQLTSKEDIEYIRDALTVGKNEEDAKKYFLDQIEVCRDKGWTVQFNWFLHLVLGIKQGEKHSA

mTOR = mTOR (Homo sapiens, UniProt P42345); experiment: Lanthascreen kinase binding assay, assay G; settings: read-out: Assay G mTOR IC50
Experimental: Lanthascreen™ Kinase Binding Assay for mTOR (G)
Binding of an inhibitor to the kinase competes for binding with the tracer, resulting in a loss of FRET.
50 nL of compound dilutions were dispensed onto white 384-well small volume polystyrene plate.

PI 3-kinase alpha [4] = biological target: T1, PI 3-kinase alpha; experiment: Cellular assay H1, p-Akt (S473) in Rat-1 cells, Surefire format; format: cell-based; settings: non-asterisked data: version H1 (Surefire format), Rat-1 cells; read-out: Assay H PI3Kα IC50
Target sequence in this assay (P42336 whole entry): as the sequence (P42336 whole entry) above
Target sequence in this assay (Q63787 whole entry partner): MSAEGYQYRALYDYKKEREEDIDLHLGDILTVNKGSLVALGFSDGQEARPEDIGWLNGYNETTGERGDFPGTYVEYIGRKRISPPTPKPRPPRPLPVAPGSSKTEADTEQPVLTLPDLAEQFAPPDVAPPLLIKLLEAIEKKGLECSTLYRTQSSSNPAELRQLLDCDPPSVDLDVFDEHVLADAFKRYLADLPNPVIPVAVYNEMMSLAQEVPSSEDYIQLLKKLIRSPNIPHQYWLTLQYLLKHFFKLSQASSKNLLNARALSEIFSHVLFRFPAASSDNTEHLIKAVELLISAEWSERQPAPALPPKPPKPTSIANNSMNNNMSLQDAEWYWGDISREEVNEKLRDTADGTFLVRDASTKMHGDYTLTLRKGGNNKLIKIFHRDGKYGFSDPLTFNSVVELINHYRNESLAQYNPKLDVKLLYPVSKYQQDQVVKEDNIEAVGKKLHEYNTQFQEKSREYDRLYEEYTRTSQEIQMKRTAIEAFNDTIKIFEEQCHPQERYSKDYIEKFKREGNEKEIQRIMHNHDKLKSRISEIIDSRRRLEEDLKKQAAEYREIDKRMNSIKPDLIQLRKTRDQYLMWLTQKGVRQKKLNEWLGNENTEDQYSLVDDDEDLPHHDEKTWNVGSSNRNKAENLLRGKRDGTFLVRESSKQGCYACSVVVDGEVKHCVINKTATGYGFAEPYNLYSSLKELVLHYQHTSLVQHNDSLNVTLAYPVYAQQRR

PI 3-kinase beta [5] = biological target: T2, PI 3-kinase beta; experiment: Cellular assay I1, p-Akt (S473) in Rat-1 cells, Surefire format; format: cell-based; settings: non-asterisked data: version I1 (Surefire format), Rat-1 cells; read-out: Assay I PI3Kβ IC50
Target sequence in this assay (P42338 whole entry): as the sequence (P42338 whole entry) above
Target sequence in this assay (Q63787 whole entry partner): as the sequence (Q63787 whole entry partner) above

PI 3-kinase delta [6] = biological target: T4, PI 3-kinase delta (Homo sapiens, UniProt O00329); experiment: Cellular assay J1, p-Akt (S473) in Rat-1 cells, Surefire format; format: cell-based; settings: non-asterisked data: version J1 (Surefire format), Rat-1 cells; read-out: Assay J PI3Kδ IC50
PI 3-kinase gamma [7] = biological target: T3, PI 3-kinase gamma; experiment: Cellular U937 AKT assay K1 (MSD); format: cell-based; settings: U937 cells, K1 format; read-out: Assay K1 PI3Kγ IC50
[8] = test system: IL-8-induced neutrophil shape change in human whole blood; experiment: Whole blood neutrophil shape change assay (L); format: cell-based; settings: Homo sapiens, Neutrophil, IL-8, human whole blood, read-out: Assay L WBSC IC50
PI 3-kinase delta [9] = biological target: T4, PI 3-kinase delta; experiment: TR-FRET Adapta assay, assay F; settings: read-out: Assay F PI3Kδ IC50
[10] = Microsomal clearance assay (M); settings: intrinsic clearance in rat liver microsomes
Experimental: The experiments were performed in 96-well glass plates at 37° C. on an automated Tecan EVO platform. Test compounds at a concentration of 10 mM in pure DMSO were diluted 1:1000 in water to 10 μM. […] Reactions were initiated by the addition of 150 μL of a cofactor solution containing 2 mM NADPH.

SMILES | IC50 (PI 3-kinase alpha [1]) [nM] | IC50 (PI 3-kinase beta [2]) [nM] | IC50 (Vps34) [nM] | IC50 (PI 4-kinase beta) [nM] | IC50 (PI 3-kinase gamma [3]) [nM] | IC50 (mTOR) [nM] | IC50 (PI 3-kinase alpha [4]) [nM] | IC50 (PI 3-kinase beta [5]) [nM] | IC50 (PI 3-kinase delta [6]) [nM] | IC50 (PI 3-kinase gamma [7]) [nM] | IC50 [8] [nM] | IC50 (PI 3-kinase delta [9]) [nM] | Assay M RLM CI(int) [10] [µL/min/mg]
CCc1nnc(-c2nc(-c3cc(S(=O)(=O)N[C@H]4CC[C@H](O)CC4)ccc3C)cnc2N)o1 [Example 138, Trans-3-(5-Amino-6-(5-ethyl-1,3,4-oxadiazol-2-yl)pyrazin-2-yl)-N-((1r,4r)-4-hydroxycyclohexyl)-4-methylbenzenesulfonamide] | 2700 | > 9100 | > 9100 | 8540 | 4 | > 9100 | 8800 | > 10000 | 3550 | 260 | 4830 | 860 | 31
Cc1ccc(S(=O)(=O)N[C@H]2CC[C@H](O)CC2)cc1-c1cnc(N)c(-c2nc(C(C)C)no2)n1 [Example 23, 3-[5-Amino-6-(3-isopropyl-[1,2,4]oxadiazol-5-yl)-pyrazin-2-yl]-N-(4-hydroxy-cyclohexyl)-4-methyl-benzene sulfonamide] | 390 | > 9100 | > 9100 | > 9100 | 10 | 6450 | 3010 | 6460 | 1010 | 106 | 447 | 90 | 
Cc1ccc(S(=O)(=O)NCCC(C)(C)O)cc1-c1cnc(N)c(-c2cnn(Cc3ccccc3)c2)n1 [Example 132, 3-(5-Amino-6-(1-benzyl-1H-pyrazol-4-yl)pyrazin-2-yl)-N-(3-hydroxy-3-methylbutyl)-4-methylbenzenesulfonamide hydrochloride] | 180 | > 9100 | > 9100 | 2260 | 17 | > 9100 | 1280 | 6050 | 350 | 74 | 449 | 50 | 
CCc1noc(-c2nc(-c3cc(S(=O)(=O)N[C@H]4CC[C@H](O)CC4)ccc3C)cnc2N)n1 [Example 139, Trans-3-[5-Amino-6-(3-ethyl-[1,2,4]oxadiazol-5-yl)-pyrazin-2-yl]-N-(4-hydroxy-cyclohexyl)-4-methyl-benzene sulfonamide] | 540 | 8390 | > 9100 | > 9100 | 16 | 8300 | 1080 | 7960 | 970 | 102 | 565 | 160 | 
Cc1nnc(-c2nc(-c3cc(S(=O)(=O)N[C@H]4CC[C@H](O)CC4)ccc3C)cnc2N)o1 [Example 1, Trans-3-[5-Amino-6-(5-methyl-[1,3,4]oxadiazol-2-yl)-pyrazin-2-yl]-N-(4-hydroxy-cyclohexyl)-4-methyl-benzenesulfonamide] | 1300 |  | > 9100 | > 9100 | 15 |  | 9360 | > 10000 | 7420 | 504 | 803 | 1010 | <3.4
Cc1noc(-c2nc(-c3cc(S(=O)(=O)N[C@H]4CC[C@H](O)CC4)ccc3C)cnc2N)n1 [Example 2, Trans-3-[5-Amino-6-(3-methyl-[1,2,4]oxadiazol-5-yl)-pyrazin-2-yl]-N-(4-hydroxy-cyclohexyl)-4-methyl-benzenesulfonamide] | 820 |  | > 9100 | > 9100 | 3 | > 9100 | 3180 | > 10000 | 1070 | 147 | 687 | 390 | 25
Cc1noc(-c2nc(-c3cc(S(=O)(=O)NCCC(C)(C)O)ccc3C)cnc2N)n1 [Example 3, 3-[5-Amino-6-(3-methyl-[1,2,4]oxadiazol-5-yl)-pyrazin-2-yl]-N-(3-hydroxy-3-methyl-butyl)-4-methyl-benzenesulfonamide] | 600 | 5880 | > 9100 | > 9100 | 46 | > 9100 | 1040 | 8330 | 1170 | 394 | 1110 | 140 | 
Cc1ccc(S(=O)(=O)NCCC(C)(C)O)cc1-c1cnc(N)c(-c2cn(C)nc2C)n1 [Example 12, 3-(5-Amino-6-(1,3-dimethyl-1H-pyrazol-4-yl)pyrazin-2-yl)-N-(3-hydroxy-3-methylbutyl)-4-methyl benzenesulfonamide] | 140 | 2650 | > 9100 | > 9100 | 41 | > 9100 | 4700 | > 10000 | 3410 | 117 | 200 | 240 | 
CCc1noc(-c2nc(-c3cc(S(=O)(=O)NCCC(C)(C)O)ccc3C)cnc2N)n1 [Example 136, 3-(5-Amino-6-(3-ethyl-1,2,4-oxadiazol-5-yl)pyrazin-2-yl)-N-(3-hydroxy-3-methylbutyl)-4-methylbenzenesulfonamide] | 440 | > 9100 | > 9100 | > 9100 | 12 | > 9100 | 990 | > 10000 | 1120 | 124 | 1300 | 130 | 

The next lines start with the values.

IC50 (PI 3-kinase alpha [1]) [nM] | IC50 (PI 3-kinase beta [2]) [nM] | IC50 (Vps34) [nM] | IC50 (PI 4-kinase beta) [nM] | IC50 (PI 3-kinase gamma [3]) [nM] | IC50 (mTOR) [nM] | IC50 (PI 3-kinase alpha [4]) [nM] | IC50 (PI 3-kinase beta [5]) [nM] | IC50 (PI 3-kinase delta [6]) [nM] | IC50 (PI 3-kinase gamma [7]) [nM] | IC50 [8] [nM] | IC50 (PI 3-kinase delta [9]) [nM] | Assay M RLM CI(int) [10] [µL/min/mg] | SMILES
160 | 7850 | > 9100 | 3740 | 7 | 2230 | 2830 | 6990 | 1240 | 46 | 1660 | 110 | 79 | Cc1ccc(S(=O)(=O)NCCC(C)(C)O)cc1-c1cnc(N)c(-c2cnn(C(C)C)c2)n1 [Example 119.31]
120 | 2250 | > 10000 | 3000 |  | 1830 | 130 | > 10000 | 830 | 36 | 970 | 530 | 40 | Cc1ccc(S(=O)(=O)NOC2CCOC2)cc1-c1cnc(N)c(-n2cncn2)n1 (stereo not shown) [Example 112.5, 3-(5-Amino-6-(1H-1,2,4-triazol-1-yl)pyrazin-2-yl)-4-methyl-N-((tetrahydrofuran-3-yl)oxy)benzenesulfonamide]
400 | 5780 | > 9100 | 4050 | 31 | 8740 | 1280 | 4100 | 1200 | 65 | 2090 | 290 |  | CCCn1cc(-c2nc(-c3cc(S(=O)(=O)NCCC(C)(C)O)ccc3C)cnc2N)cn1 [Example 119.25]
